Measurements from publication PMC11089505, “Structural Elucidation and Antiviral Activity of Covalent Cathepsin L Inhibitors” (Journal of Medicinal Chemistry, 2024).
Where “and” joins values, the source holds several entries; their conditions need not be identical. Equal entries are not always repeated. Where two headings read alike, the source gives them in different places. Square brackets hold non-standard residues; d marks the D form. Peptide text beside a SMILES is read from it. Nle = CCCC[C@H](N)C(=O)O

Assays:
CatL [1] = settings: cited from earlier work
in vitro = settings: African green monkey
CatL [2] = target: T1, CatL (Homo sapiens, UniProt P07711, T223A); assay: NanoDSF, thermal stability of CatL; type: binding; settings: for 2:1, Tm average (CatL): 2:1 compound to protein; for 20:1, Tm average (CatL): 20:1 compound to protein
T1 construct: made in house; host or cells: Komagataella pastoris strain GS115

CatL [3] = target: T1, CatL; assay: CatL inhibition assay (Ki), substrate Z-RR-AMC; type: biochemical
Protocol: (§1) Experiments were performed in a solution of 50 mM sodium acetate, pH 4.0, 50 mM NaCl, 0.1% PEG 6000, and 5 mM DTT. Distinct assays with epoxide inhibitors at pH 6.0 were performed in 50 mM sodium phosphate buffer, 50 mM NaCl, 5 mM DTT, 0.1% PEG 6000, adjusted to pH 6.0.
(§2) M1000 pro plate reader (Tecan), the fluorescent peptide substrate Z-RR-AMC, and excitation and emission wavelengths of 370 and 460 nm, respectively.
(§3) At first, the inhibitor concentration span was optimized for each inhibitor and the assay buffer. For this initial screening, CatL (5 nM) was mixed with different concentrations of inhibitors (1 nM–50 μM) to determine the range of their inhibition. […] Reaction data were fitted to the […] in GraphPad Prism 9 software: Y = bottom + (top – bottom)/(1 + 10^∧((log IC50 – X) × HillSlope)); X is the log of dose or concentration, Y is the response (fluorescence signal), decreasing as X increases, top and bottom are the plateaus in the same units as Y, log IC50 same log units as X, HillSlope is the slope factor or called the Hill slope.

[4] = tested on: SARS-CoV-2-GFP in Vero E6 cells; assay: microbe, parasite or virus in culture; type: cell-based
SARS-CoV-2 Mpro = SARS-CoV-2 Mpro (Severe acute respiratory syndrome coronavirus 2, UniProt P0DTD1); type: binding; settings: for 2:1, Tm average (Mpro): 2:1 compound to protein
CatL [5] = target: T1, CatL; assay: CatL inactivation assay comparing epoxides at pH 6 and pH 4; type: biochemical
Protocol: as §1, §2, §3
Figure S7. Inactivation of CatL.
(1 picture or pasted object on this page, not shown here)

T1 sequence (P07711 114-333 T223A): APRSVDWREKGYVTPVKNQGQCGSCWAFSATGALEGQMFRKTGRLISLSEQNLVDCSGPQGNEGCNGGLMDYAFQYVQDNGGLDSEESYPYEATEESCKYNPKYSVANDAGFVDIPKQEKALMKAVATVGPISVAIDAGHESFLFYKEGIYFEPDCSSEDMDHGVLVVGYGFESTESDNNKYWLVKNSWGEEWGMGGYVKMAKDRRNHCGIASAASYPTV

Q: With CCCC[C@@H](C=O)NC(=O)[C@H](CC(C)C)NC(=O)OCc1ccccc1 [Calpeptin] as the compound, how does the Ki (CatL [1]; read-out: Ki of CatL inhibition) read?
A: The Ki was 0.13 nM.

Q: And the viability at 48 h, 1e-05 µM (in vitro)?
A: The viability at 48 h, 1e-05 µM was 100%.

Q: What about the viability at 48 h, 0.0001 µM (in vitro) of the same compound?
A: Its viability at 48 h, 0.0001 µM is 98.4%.

Q: What about the viability at 48 h, 0.001 µM (in vitro) of the same compound?
A: The viability at 48 h, 0.001 µM was 99.3%.

Q: And the viability at 48 h, 0.01 µM (in vitro)?
A: The viability at 48 h, 0.01 µM was 97.9%.

Q: What about the viability at 48 h, 0.1 µM (in vitro) of the same compound?
A: The viability at 48 h, 0.1 µM was 101%.

Q: What about the viability at 48 h, 1 µM (in vitro) of the same compound?
A: Its viability at 48 h, 1 µM is 101%.

Q: And the viability at 48 h, 10 µM (in vitro)?
A: The viability at 48 h, 10 µM was 105%.

Q: What about the “2:1, Tm average (CatL)” value (CatL [2]) of the same compound?
A: Its value is 81.8 °C.

Q: What about the “20:1, Tm average (CatL)” value (CatL [2]) of the same compound?
A: The value was 82 °C.

Q: For CCCC[C@@H](C=O)NC(=O)[C@H](CC(C)C)NC(=O)[C@H](CC(C)C)NC(C)=O [MG-101, Acetyl-Leu-Leu-Nle-aldehyde] (Ac-Leu-Leu-[Nle]-aldehyde), which Ki (CatL [3]; read-out: Ki) is on record?
A: The Ki was 0.064 nM and 0.0645 nM.

Q: What about the remaining activity at 69 pM (CatL [3]; read-out: Residual activity (Vi/V0), MG-101 0.069 nM) of the same compound?
A: The remaining activity at 69 pM was 91.8%.

Q: What about the remaining activity at 99 pM (CatL [3]; read-out: Residual activity (Vi/V0), MG-101 0.099 nM) of the same compound?
A: Its remaining activity at 99 pM is 86.4%.

Q: And the remaining activity at 0.000141 µM (CatL [3]; read-out: Residual activity (Vi/V0), MG-101 0.141 nM)?
A: The remaining activity at 0.000141 µM was 80.3%.

Q: And the remaining activity at 0.000202 µM (CatL [3]; read-out: Residual activity (Vi/V0), MG-101 0.202 nM)?
A: The remaining activity at 0.000202 µM was 78.5%.

Q: And the remaining activity at 0.000288 µM (CatL [3]; read-out: Residual activity (Vi/V0), MG-101 0.288 nM)?
A: The remaining activity at 0.000288 µM was 70.1%.

Q: And the remaining activity at 0.000412 µM (CatL [3]; read-out: Residual activity (Vi/V0), MG-101 0.412 nM)?
A: Its remaining activity at 0.000412 µM is 58.3%.

Q: What about the remaining activity at 0.000588 µM (CatL [3]; read-out: Residual activity (Vi/V0), MG-101 0.588 nM) of the same compound?
A: Its remaining activity at 0.000588 µM is 43.3%.

Q: What about the Ki (CatL [1]; read-out: Ki) of the same compound?
A: The Ki was 0.5 nM.

Q: What about the EC50 ([4]; Severe acute respiratory syndrome coronavirus 2, Vero C1008, 24 h, read-out: EC50 (after 24 h)) of the same compound?
A: The EC50 was 4.39 nM.

Q: And the EC50 ([4]; Severe acute respiratory syndrome coronavirus 2, Vero C1008, 48 h, read-out: EC50 (48 h))?
A: Its EC50 is < 500 nM.

Q: And the EC50 ([4]; Severe acute respiratory syndrome coronavirus 2, Vero C1008, 48 h, read-out: EC50 (after 48 h))?
A: Its EC50 is 198 nM.

Q: What about the “2:1, Tm average (Mpro)” value (SARS-CoV-2 Mpro) of the same compound?
A: The value was 60.4 °C.

Q: What does the source list for CC(C)C[C@H](NC(=O)[C@H]1O[C@@H]1C(=O)O)C(=O)NCCCCN=C(N)N [E-64, 3-[[[(1S)-1-[[[4-[(Aminoiminomethyl)amino]butyl]amino]carbonyl]-3-methylbutyl]amino]carbonyl]-(2S.3S)-oxiranecarboxylic acid]?
A: Inactivation Rate (CatL [5]; E-64, pH 4, 19.76 nM): 0.0008123 per second and 0.00102 per second; Inactivation Rate (CatL [5]; E-64, pH 4, 29.64 nM): 0.001302 per second and 0.001598 per second; Inactivation Rate (CatL [5]; E-64, pH 4, 44.45 nM): 0.002006 per second and 0.002388 per second; Inactivation Rate (CatL [5]; E-64, pH 4, 66.68 nM): 0.003192 per second and 0.003338 per second; Inactivation Rate (CatL [5]; E-64, pH 4, 100.01 nM): 0.004626 per second and 0.004922 per second; Inactivation Rate (CatL [5]; E-64, pH 4, 225.00 nM): 0.01185 per second and 0.01036 per second; Inactivation Rate (CatL [5]; E-64, pH 6, 19.76 nM): 0.0005258 per second and 0.000578 per second; Inactivation Rate (CatL [5]; E-64, pH 6, 29.64 nM): 0.0007668 per second and 0.0008131 per second; Inactivation Rate (CatL [5]; E-64, pH 6, 44.45 nM): 0.001154 per second and 0.001247 per second; Inactivation Rate (CatL [5]; E-64, pH 6, 66.68 nM): 0.001742 per second and 0.001837 per second; Inactivation Rate (CatL [5]; E-64, pH 6, 100.01 nM): 0.002659 per second and 0.002717 per second; Inactivation Rate (CatL [5]; E-64, pH 6, 225.00 nM): 0.006042 per second and 0.006005 per second; ΔTm (for Mpro), 2:1 compound to protein mixing ratio (SARS-CoV-2 Mpro; 8 µM Mpro, pH 7.5, 2% DMSO, 2:1): -1,0 ± 0,2 °C and -1 °C; 2:1, Tm average (Mpro) (SARS-CoV-2 Mpro): 54.4 °C; ΔTm [K] for CatL, 2:1 ratio (CatL [2]): 4.1 ± 0.4 K; 2:1, Tm average (CatL) (CatL [2]): 67.2 °C; 20:1, Tm average (CatL) (CatL [2]): 76.9 °C; ΔTm (for CatL), 2:1 compound to protein mixing ratio (CatL [2]; pH 5): 4,1 ± 0,4 °C and 4.1 °C; ΔTm (for CatL), 20:1 compound to protein mixing ratio (CatL [2]; pH 5): 13,8 ± 0,1 °C and 13.8 °C

Q: For CSCCC(C=O)NC(=O)C(CC(C)C)NC(=O)C(CC(C)C)NC(C)=O (stereo not drawn) [CI-II] (Ac-Leu-Leu-Met-aldehyde; configuration not given here), which Ki (CatL [1]; Sasaki et al., read-out: Ki) is on record?
A: The Ki was 0.6 nM.
